Measurements as given in article PMC5383655, “Development of Automated Patch Clamp Technique to Investigate CFTR Chloride Channel Function” (Frontiers in Pharmacology, 2017).

Target: T1, cystic fibrosis transmembrane conductance regulator (CFTR), wt (Homo sapiens, UniProt P13569)
T1 construct: wt-CFTR stably expressed in BHK cells
Assay: automated whole-cell patch clamp, acute potentiation of current activated by […] Fsk on addition of […] compound
Assay type: cell-based

T1 sequence (P13569 whole entry): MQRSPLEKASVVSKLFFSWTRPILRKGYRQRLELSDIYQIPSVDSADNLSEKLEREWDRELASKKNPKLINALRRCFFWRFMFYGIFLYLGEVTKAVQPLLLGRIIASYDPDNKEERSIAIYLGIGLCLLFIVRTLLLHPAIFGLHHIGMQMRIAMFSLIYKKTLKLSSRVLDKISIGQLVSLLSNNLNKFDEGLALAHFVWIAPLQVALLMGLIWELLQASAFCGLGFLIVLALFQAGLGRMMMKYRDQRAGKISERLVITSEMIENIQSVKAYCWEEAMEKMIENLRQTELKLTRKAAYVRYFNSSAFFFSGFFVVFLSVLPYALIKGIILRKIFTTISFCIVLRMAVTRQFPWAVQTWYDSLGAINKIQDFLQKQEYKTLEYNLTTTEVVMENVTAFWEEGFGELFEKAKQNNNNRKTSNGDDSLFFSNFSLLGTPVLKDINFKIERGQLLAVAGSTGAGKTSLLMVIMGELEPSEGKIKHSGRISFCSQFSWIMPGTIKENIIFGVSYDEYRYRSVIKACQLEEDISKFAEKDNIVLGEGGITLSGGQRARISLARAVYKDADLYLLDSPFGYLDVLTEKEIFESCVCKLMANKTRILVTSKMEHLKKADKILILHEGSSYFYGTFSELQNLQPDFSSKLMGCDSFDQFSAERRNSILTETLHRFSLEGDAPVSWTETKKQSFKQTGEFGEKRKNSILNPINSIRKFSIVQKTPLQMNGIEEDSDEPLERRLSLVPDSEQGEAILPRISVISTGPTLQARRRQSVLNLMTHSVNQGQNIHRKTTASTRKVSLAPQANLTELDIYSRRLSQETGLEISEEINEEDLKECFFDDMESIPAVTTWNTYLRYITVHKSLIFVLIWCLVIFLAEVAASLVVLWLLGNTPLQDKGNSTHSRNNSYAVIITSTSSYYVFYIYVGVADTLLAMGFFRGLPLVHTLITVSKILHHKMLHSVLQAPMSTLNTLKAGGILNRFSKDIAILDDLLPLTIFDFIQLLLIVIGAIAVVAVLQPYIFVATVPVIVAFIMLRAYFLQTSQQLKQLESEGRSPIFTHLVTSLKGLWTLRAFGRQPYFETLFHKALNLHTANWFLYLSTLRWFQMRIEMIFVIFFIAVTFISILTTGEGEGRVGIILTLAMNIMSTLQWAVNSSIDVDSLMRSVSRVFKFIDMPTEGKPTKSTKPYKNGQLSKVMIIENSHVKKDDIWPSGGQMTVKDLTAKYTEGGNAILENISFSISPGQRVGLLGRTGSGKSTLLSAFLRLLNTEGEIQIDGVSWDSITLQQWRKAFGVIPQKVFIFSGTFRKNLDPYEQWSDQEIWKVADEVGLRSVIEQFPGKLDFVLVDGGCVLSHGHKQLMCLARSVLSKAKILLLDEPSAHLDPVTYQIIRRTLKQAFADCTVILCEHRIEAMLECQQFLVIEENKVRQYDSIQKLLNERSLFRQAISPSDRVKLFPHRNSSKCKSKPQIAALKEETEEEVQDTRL

## CC(C)(C)c1cc(C(C)(C)C)c(NC(=O)c2c[nH]c3ccccc3c2=O)cc1O [VX770]
  automated whole-cell patch clamp, acute potentiation of current activated by 1 μ: clearly demonstrate potentiation of the Fsk-activated current by the potentiator VX770
